Assay results from paper PMC6017068, “Cloning and Functional Characterization of Two 4-Coumarate: CoA Ligase Genes from Selaginella moellendorffii” (Molecules : A Journal of Synthetic Chemistry and Natural …, 2018).

Key:
Assay type in all cases: biochemical
Details in all cases: ATP, MgCl2, 200 mM Tris-HCl, optimal pH about 7.0, optimal temperature 50 °C
Sm4CL2 [1] = target: T1, Sm4CL2 (Selaginella moellendorffii, UniProt D8S6A2); experiment: UV absorption at […] nm, CoA ester formation
T1 construct: gene 4CL2-1; 75-79 kDa with tags (tags kept)
T1 sequence (D8S6A2 entry or part of it): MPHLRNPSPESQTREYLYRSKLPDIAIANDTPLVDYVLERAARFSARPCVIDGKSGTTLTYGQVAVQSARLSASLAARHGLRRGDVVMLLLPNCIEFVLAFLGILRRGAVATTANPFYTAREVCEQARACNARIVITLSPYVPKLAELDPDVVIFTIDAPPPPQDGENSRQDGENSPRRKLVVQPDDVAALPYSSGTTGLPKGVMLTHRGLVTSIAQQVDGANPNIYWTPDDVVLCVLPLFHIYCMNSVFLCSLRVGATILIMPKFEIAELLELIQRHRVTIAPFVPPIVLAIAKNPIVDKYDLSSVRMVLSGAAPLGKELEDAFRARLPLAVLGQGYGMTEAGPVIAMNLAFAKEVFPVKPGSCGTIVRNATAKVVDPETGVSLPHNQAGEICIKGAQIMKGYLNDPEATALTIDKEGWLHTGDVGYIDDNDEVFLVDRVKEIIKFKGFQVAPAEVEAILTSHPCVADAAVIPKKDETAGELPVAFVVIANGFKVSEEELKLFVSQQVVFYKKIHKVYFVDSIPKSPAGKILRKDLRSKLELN

Sm4CL2 [2] = target: T1, Sm4CL2; experiment: UV absorption at […] nm, CoA ester formation; remark: listed apart in the source
Sm4CL2 [3] = target: T1, Sm4CL2; experiment: HPLC quantification of CoA ester after […] min
Sm4CL2 [4] = target: T1, Sm4CL2; experiment: UV absorption at […] nm, CoA ester formation; remark: listed apart in the source

SMILES: O=C(O)/C=C/c1ccc(O)c(O)c1 [caffeic acid]
- Km (Sm4CL2 [1]): 19 ± 2.61 µM

SMILES: O=C(O)/C=C/c1ccccc1 [cinnamic acid]
- Km (Sm4CL2 [2]): 127 ± 11.6 µM

SMILES: O=C(O)CCc1ccc(O)cc1 [dihydro-p-coumaric acid]
- Km (Sm4CL2 [3]): 220 ± 36.9 µM

SMILES: COc1cc(/C=C/C(=O)O)ccc1O [ferulic acid]
- Km (Sm4CL2 [1]): 96 ± 13.4 µM

SMILES: O=C(O)/C=C/c1ccc(O)cc1 [p-coumaric acid]
- Km (Sm4CL2 [4]): 19.7 ± 2.92 µM
